# According to PubChem BioAssay AID1919013 (Molecular Pharmacology Branch, DTP, NCI, 2023):
# Several values for one entry are separate records, joined by “and”; a condition that tells them apart may be missing. Equal values may be shown once.
# Test system: LG0703-F498-PDC complex spheroid growth
# Assay: Anticancer human tumor LG0703-F498-PDC patient-derived lung adenocarcinoma cell line growth inhibition [AhR]
# Conditions: for viability, T/C: stronger effect = lower value
# In short: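 Spheroids combined tumor cells with HUVEC endothelial cells and human MSCs as stroma. AhR antagonists were paired with standard or investigational drugs, each dosed in half-log steps down from near clinical Cmax, or from 10 microM where Cmax was unknown.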
# [1] = curve of first compound, second compound 0.1 µM
# [2] = curve of first compound, second compound 0.316 µM
# [3] = curve of first compound, second compound 1 µM
# [4] = curve of first compound, second compound 3.16 µM
# [5] = curve of first compound, second compound 10 µM
# [6] = second compound 0.1 µM, first compound 0.0316 µM
# [7] = second compound 0.1 µM, first compound 0.1 µM
# [8] = second compound 0.1 µM, first compound 0.316 µM
# [9] = second compound 0.1 µM, first compound 1 µM
# [10] = second compound 0.1 µM, first compound 3.16 µM
# [11] = second compound 0.1 µM, first compound 10 µM
# [12] = second compound 0.316 µM, first compound 0.0316 µM
# [13] = second compound 0.316 µM, first compound 0.1 µM
# [14] = second compound 0.316 µM, first compound 0.316 µM
# [15] = second compound 0.316 µM, first compound 1 µM
# [16] = second compound 0.316 µM, first compound 3.16 µM
# [17] = second compound 0.316 µM, first compound 10 µM
# [18] = second compound 1 µM, first compound 0.0316 µM
# [19] = second compound 1 µM, first compound 0.1 µM
# [20] = second compound 1 µM, first compound 0.316 µM
# [21] = second compound 1 µM, first compound 1 µM
# [22] = second compound 1 µM, first compound 3.16 µM
# [23] = second compound 1 µM, first compound 10 µM
# [24] = second compound 3.16 µM, first compound 0.0316 µM
# [25] = second compound 3.16 µM, first compound 0.1 µM
# [26] = second compound 3.16 µM, first compound 0.316 µM
# [27] = second compound 3.16 µM, first compound 1 µM
# [28] = second compound 3.16 µM, first compound 3.16 µM
# [29] = second compound 3.16 µM, first compound 10 µM
# [30] = second compound 10 µM, first compound 0.0316 µM
# [31] = second compound 10 µM, first compound 0.1 µM
# [32] = second compound 10 µM, first compound 0.316 µM
# [33] = second compound 10 µM, first compound 1 µM
# [34] = second compound 10 µM, first compound 3.16 µM
# [35] = second compound 10 µM, first compound 10 µM
# [36] = second compound 0.1 µM, first compound 0.00316 µM
# [37] = second compound 0.1 µM, first compound 0.01 µM
# [38] = second compound 0.316 µM, first compound 0.00316 µM
# [39] = second compound 0.316 µM, first compound 0.01 µM
# [40] = second compound 1 µM, first compound 0.00316 µM
# [41] = second compound 1 µM, first compound 0.01 µM
# [42] = second compound 3.16 µM, first compound 0.00316 µM
# [43] = second compound 3.16 µM, first compound 0.01 µM
# [44] = second compound 10 µM, first compound 0.00316 µM
# [45] = second compound 10 µM, first compound 0.01 µM
# 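Note: luminescence taken as a proxy for viable cell amount.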
# 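Throughout, for viability, T/C: percent of DMSO vehicle control where 100% means growth equal to vehicle.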
Compound,IC50 [1] [nM],IC50 [2] [nM],IC50 [3] [nM],IC50 [4] [nM],IC50 [5] [nM],"viability, T/C [6] [%]","viability, T/C [7] [%]","viability, T/C [8] [%]","viability, T/C [9] [%]","viability, T/C [12] [%]","viability, T/C [13] [%]","viability, T/C [14] [%]","viability, T/C [15] [%]","viability, T/C [18] [%]","viability, T/C [19] [%]","viability, T/C [20] [%]","viability, T/C [24] [%]","viability, T/C [25] [%]","viability, T/C [30] [%]","viability, T/C [31] [%]",other results
CC1(C)CCC(CN2CCN(c3ccc(C(=O)NS(=O)(=O)c4ccc(NCC5CCOCC5)c([N+](=O)[O-])c4)c(Oc4cnc5[nH]ccc5c4)c3)CC2)=C(c2ccc(Cl)cc2)C1 + Cc1cncc(-c2nc(NCCc3c[nH]c4ccccc34)c3ncn(C(C)C)c3n2)c1,8320,7100,7970,31.6,< 31.6,112,96.1,106,97,120,88,101,92.7,116,113,95,48,49.5,1.31,1.08,"viability, T/C [10]: 87.8%; viability, T/C [11]: 42.5%; viability, T/C [16]: 88.4%; viability, T/C [17]: 34.3%; viability, T/C [21]: 103%; viability, T/C [22]: 97.7%; viability, T/C [23]: 37.8%; viability, T/C [26]: 54.6%; viability, T/C [27]: 43.3%; viability, T/C [28]: 52.1%; viability, T/C [29]: 24.7%; viability, T/C [32]: 1.56%; viability, T/C [33]: 1.25%; viability, T/C [34]: 1.72%; viability, T/C [35]: 4.35%"
Cn1ncnc1C1c2n[nH]c(=O)c3cc(F)cc(c23)NC1c1ccc(F)cc1 (configuration not stated) + Cc1ccccc1N=Nc1ccc(NC(=O)c2ccnn2C)c(C)c1,> 100,> 100,> 100,> 100,> 100,104,89.7,–,–,85.5,88.1,–,–,95.9,83.1,–,79.7,75.9,79.4,79.5,"viability, T/C (second compound 0.1 µM, first compound 0.000316 µM): 97.2%; viability, T/C (second compound 0.1 µM, first compound 0.001 µM): 88.6%; viability, T/C [36]: 103%; viability, T/C [37]: 95.2%; viability, T/C (second compound 0.316 µM, first compound 0.000316 µM): 93.8%; viability, T/C (second compound 0.316 µM, first compound 0.001 µM): 98.1%; viability, T/C [38]: 92.6%; viability, T/C [39]: 94.3%; viability, T/C (second compound 1 µM, first compound 0.000316 µM): 93.5%; viability, T/C (second compound 1 µM, first compound 0.001 µM): 89.4%; viability, T/C [40]: 83.3%; viability, T/C [41]: 79.6%; viability, T/C (second compound 3.16 µM, first compound 0.000316 µM): 84.9%; viability, T/C (second compound 3.16 µM, first compound 0.001 µM): 79.9%; viability, T/C [42]: 88%; viability, T/C [43]: 78.3%; viability, T/C (second compound 10 µM, first compound 0.000316 µM): 84.2%; viability, T/C (second compound 10 µM, first compound 0.001 µM): 85.2%; viability, T/C [44]: 77.9%; viability, T/C [45]: 85.9%"
Nc1ncn(C2CC(O)C(CO)O2)c(=O)n1 (configuration not stated) + Cc1ccccc1N=Nc1ccc(NC(=O)c2ccnn2C)c(C)c1,> 1000,> 1000,> 1000,> 1000,> 1000,94.8,85,83.2,83.9,92.1,90.1,76.5,87,88,89.7,75.4,87,75,86.6,72.4,"viability, T/C [36]: 96.5%; viability, T/C [37]: 99.1%; viability, T/C [38]: 97%; viability, T/C [39]: 93.6%; viability, T/C [40]: 86.2%; viability, T/C [41]: 101%; viability, T/C [21]: 92.6%; viability, T/C [42]: 95.2%; viability, T/C [43]: 97.6%; viability, T/C [26]: 79.4%; viability, T/C [27]: 65.5%; viability, T/C [44]: 85.9%; viability, T/C [45]: 90.9%; viability, T/C [32]: 74.2%; viability, T/C [33]: 68.3%"
CC[C@@]1(O)C(=O)OCc2c1cc1n(c2=O)Cc2cc3c(CN(C)C)c(O)ccc3nc2-1,–,–,–,–,–,–,–,–,–,–,–,–,–,–,–,–,–,–,–,–,"viability, T/C (compound 0.000316 µM): 104% and 108% and 106%; viability, T/C (compound 0.001 µM): 112% and 105% and 93.5%; viability, T/C (compound 0.00316 µM): 100% and 102% and 95.9%; viability, T/C (compound 0.01 µM): 90.5% and 93.7% and 90%; viability, T/C (compound 0.0316 µM): 85.8% and 111% and 87.9%; viability, T/C (compound 0.1 µM): 68.1% and 69.4% and 73.8%; IC50 (curve of compound): > 100 nM"
CC1COCCN1c1cc(-c2ccnn2C)c2ccnc(-c3ccn[nH]3)c2n1 (configuration not stated) + CC(CO)NC(=O)c1cc(-c2ccc(Cl)cc2)nn(-c2cnn(C)c2)c1=O,666,465,602,416,243,93.4,70.6,66.2,42.5,96.6,72.5,55.8,43.4,90.7,82.4,58.1,78.2,67.2,82.7,60.8,"viability, T/C [36]: 107%; viability, T/C [37]: 104%; viability, T/C [38]: 93.2%; viability, T/C [39]: 110%; viability, T/C [40]: 108%; viability, T/C [41]: 102%; viability, T/C [21]: 42.5%; viability, T/C [42]: 87.5%; viability, T/C [43]: 90.5%; viability, T/C [26]: 55.1%; viability, T/C [27]: 37.9%; viability, T/C [44]: 101%; viability, T/C [45]: 90.1%; viability, T/C [32]: 47.1%; viability, T/C [33]: 32.6%"
COc1cc(Nc2ncc3c(n2)-c2ccc(Cl)cc2C(c2c(F)cccc2OC)=NC3)ccc1C(=O)O + CC(CO)NC(=O)c1cc(-c2ccc(Cl)cc2)nn(-c2cnn(C)c2)c1=O,6880,8340,5110,4360,3250,87.2,88.2,78.5,71,94.9,79.2,78.9,70.2,91.6,96.2,75.1,91.6,75.2,92,77.4,"viability, T/C [10]: 61.7%; viability, T/C [11]: 44.4%; viability, T/C [16]: 56.3%; viability, T/C [17]: 48.8%; viability, T/C [21]: 68.2%; viability, T/C [22]: 56.4%; viability, T/C [23]: 42.7%; viability, T/C [26]: 70.7%; viability, T/C [27]: 63.9%; viability, T/C [28]: 50.3%; viability, T/C [29]: 44.5%; viability, T/C [32]: 65%; viability, T/C [33]: 65%; viability, T/C [34]: 52.7%; viability, T/C [35]: 37.6%"
COc1cc(C2c3cc4c(cc3C(OC3OC5COC(C)OC5C(O)C3O)C3COC(=O)C23)OCO4)cc(OC)c1O (configuration not stated) + CC(CO)NC(=O)c1cc(-c2ccc(Cl)cc2)nn(-c2cnn(C)c2)c1=O,> 10000,> 10000,> 10000,> 10000,> 10000,111,108,93.9,87.9,98.6,107,99.8,81.5,100,103,101,91.1,95.8,84.3,85.7,"viability, T/C [10]: 81.8%; viability, T/C [11]: 76.3%; viability, T/C [16]: 93.3%; viability, T/C [17]: 69.9%; viability, T/C [21]: 94.3%; viability, T/C [22]: 75.7%; viability, T/C [23]: 75.2%; viability, T/C [26]: 96.5%; viability, T/C [27]: 81.7%; viability, T/C [28]: 72.8%; viability, T/C [29]: 75.5%; viability, T/C [32]: 90.7%; viability, T/C [33]: 78%; viability, T/C [34]: 73%; viability, T/C [35]: 60.8%"
